In US20160322588A1, “Organic Transistor, Compound, Organic Semiconductor Material for Non-Light-Emitting Organic Semiconductor Device, Material for Organic Transistor, Coating Solution for Non-Light-Emitting Organic Semiconductor Device, and Organic Semiconductor Film for Non-Light-Emitting Organic Semiconductor Device” (FUJIFILM Corporation, priority 2014, published 2016):

Assay: Solubility in toluene
Format: physicochemical
Conditions: 20 mg mixed with toluene (1 mL)
From the text: B: Incompletely dissolved.

Solubility	Structure (SMILES)
A (Completely dissolved.)	CCCCCCCCC#Cc1cc2c(ccc3c2sc2c4ccc5sc(C#CCCCCCCCC)cc5c4sc32)s1 [Compound 30]
A (Completely dissolved.)	CCCCCCCCOc1cc2ccc3c(sc4c5ccc6cc(OCCCCCCCC)sc6c5sc34)c2s1 [Compound 37]
A (Completely dissolved.)	CCCCCCCCC#Cc1cc2ccc3c(sc4c5ccc6cc(C#CCCCCCCCC)sc6c5sc34)c2s1 [Compound 29]
A (Completely dissolved.)	CCCCCCCCCCCCc1cc2c(ccc3c2sc2c4ccc5sc(CCCCCCCCCCCC)cc5c4sc32)s1 [Compound 4]
A (Completely dissolved.)	CCCCCCCCc1cc2ccc3c(sc4c5ccc6ccsc6c5sc34)c2s1 [Compound 43]
A (Completely dissolved.)	CCCCCCCCOc1cc2c(ccc3c2sc2c4ccc5sc(OCCCCCCCC)cc5c4sc32)s1 [Compound 38]
A (Completely dissolved.)	CCCCCCCCc1cc2ccc3c(sc4c5ccc6cc(CCCCCCCC)sc6c5sc34)c2s1 [Compound 1]
A (Completely dissolved.)	CCCCCCCCc1cc2c(ccc3c2sc2c4ccc5sccc5c4sc32)s1 [Compound 44]
A (Completely dissolved.)	CCCCCCCCCCCCCCc1cc2sccc2c2sc3c(sc4c5ccsc5cc(CCCCCCCCCCCCCC)c43)c12 [Compound 40]
A (Completely dissolved.)	CCCCCCCCc1cc2c(ccc3c2sc2c4ccc5sc(CCCCCCCC)cc5c4sc32)s1 [Compound 2]
A (Completely dissolved.)	CCCCCCCCCCCCCCc1cc2ccsc2c2sc3c(sc4c5sccc5cc(CCCCCCCCCCCCCC)c43)c12 [Compound 39]

Structure (SMILES)	Solubility
CCCCCCCCCCCCc1cc2ccc3c(sc4c5ccc6cc(CCCCCCCCCCCC)sc6c5sc34)c2s1 [Compound 3]	A (Completely dissolved.)

Same assay, conditions: organic solvent or mixture, thermodynamic from solid; 20 mg mixed with toluene (1 mL); read-out: Solubility

Solubility [mg/mL]	Structure (SMILES)
< 20	CCc1cc2cc3c(cc2s1)sc1c2cc4cc(CC)sc4cc2sc31 [compound 2, reference compound]
< 20	CCCC(C)n1ccc2c3sc4c5ccc6c(ccn6C(C)CCC)c5sc4c3ccc21 (centres unmarked) [compound 3, reference compound]
< 20	c1cc2cc3sc4c5cc6sccc6cc5sc4c3cc2s1 [compound 4, reference compound]
> 20	CC(C)CCCC(C)CCc1cc2ccc3c(sc4c5ccc6cc(CCC(C)CCCC(C)C)sc6c5sc34)c2s1 (centres unmarked) [Compound 5]
< 20	Cn1ccc2c3sc4c5ccc6c(ccn6C)c5sc4c3ccc21 [compound 1, reference compound]
